Reference: ChEMBL document CHEMBL5465560, “Selectivity Literature for EUbOPEN Chemogenomic Library” (2024)
Blank lines part the entries; values can stand above or below the compound they belong to.

Experiments:
[1] = molecular target: Receptor tyrosine-protein kinase erbB-2 (Homo sapiens, UniProt P04626); assay: Selectivity interaction (KinomeScan (DiscoverX)) EUB0000666a ERBB2; settings: at 10 µM
[2] = molecular target: Interferon-induced, double-stranded RNA-activated protein kinase (Homo sapiens) (UniProt P19525); assay: Selectivity interaction (KinomeScan (DiscoverX)) EUB0000699a EIF2AK2; settings: at 10 µM
Interferon-induced, double-stranded RNA-activated protein kinase (Homo sapiens), sequence (P19525 whole entry): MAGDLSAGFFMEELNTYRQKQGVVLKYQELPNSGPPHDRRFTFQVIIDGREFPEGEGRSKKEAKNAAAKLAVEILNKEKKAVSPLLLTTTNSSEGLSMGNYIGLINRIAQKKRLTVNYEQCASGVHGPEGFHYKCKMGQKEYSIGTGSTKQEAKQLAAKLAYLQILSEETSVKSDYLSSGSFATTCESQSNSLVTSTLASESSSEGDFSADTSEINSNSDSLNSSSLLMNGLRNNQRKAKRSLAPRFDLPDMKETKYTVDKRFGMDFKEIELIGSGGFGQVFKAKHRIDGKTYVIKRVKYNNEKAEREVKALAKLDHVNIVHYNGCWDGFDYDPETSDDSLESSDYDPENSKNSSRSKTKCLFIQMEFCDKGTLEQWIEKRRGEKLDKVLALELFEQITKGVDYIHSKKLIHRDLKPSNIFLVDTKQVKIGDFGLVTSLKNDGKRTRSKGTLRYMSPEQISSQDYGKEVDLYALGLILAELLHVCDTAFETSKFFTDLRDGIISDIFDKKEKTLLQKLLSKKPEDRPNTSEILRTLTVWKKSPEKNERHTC

[3] = molecular target: Receptor-interacting serine/threonine-protein kinase 2 (Homo sapiens, UniProt O43353); assay: Selectivity interaction (ProQinase) EUB0000171b RIPK2
Receptor-interacting serine/threonine-protein kinase 2, sequence (O43353 whole entry): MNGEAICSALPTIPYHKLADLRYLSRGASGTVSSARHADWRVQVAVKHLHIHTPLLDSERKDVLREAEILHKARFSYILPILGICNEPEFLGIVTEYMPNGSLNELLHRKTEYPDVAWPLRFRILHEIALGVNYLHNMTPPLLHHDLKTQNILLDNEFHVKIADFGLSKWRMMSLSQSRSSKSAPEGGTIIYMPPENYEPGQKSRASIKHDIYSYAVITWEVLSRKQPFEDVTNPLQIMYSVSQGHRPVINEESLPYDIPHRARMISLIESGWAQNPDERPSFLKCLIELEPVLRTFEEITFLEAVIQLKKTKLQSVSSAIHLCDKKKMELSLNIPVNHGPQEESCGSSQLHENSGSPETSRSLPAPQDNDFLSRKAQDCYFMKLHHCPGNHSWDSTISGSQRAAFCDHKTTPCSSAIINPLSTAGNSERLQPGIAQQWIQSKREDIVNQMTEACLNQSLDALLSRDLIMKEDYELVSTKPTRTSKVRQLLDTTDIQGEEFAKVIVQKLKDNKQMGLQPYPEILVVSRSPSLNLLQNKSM

[4] = molecular target: Tyrosine-protein kinase receptor UFO (Homo sapiens) (UniProt P30530); assay: Selectivity interaction (Millipore kinase profiler) EUB0000124b AXL; settings: at 10 µM
Tyrosine-protein kinase receptor UFO (Homo sapiens), sequence (P30530 whole entry): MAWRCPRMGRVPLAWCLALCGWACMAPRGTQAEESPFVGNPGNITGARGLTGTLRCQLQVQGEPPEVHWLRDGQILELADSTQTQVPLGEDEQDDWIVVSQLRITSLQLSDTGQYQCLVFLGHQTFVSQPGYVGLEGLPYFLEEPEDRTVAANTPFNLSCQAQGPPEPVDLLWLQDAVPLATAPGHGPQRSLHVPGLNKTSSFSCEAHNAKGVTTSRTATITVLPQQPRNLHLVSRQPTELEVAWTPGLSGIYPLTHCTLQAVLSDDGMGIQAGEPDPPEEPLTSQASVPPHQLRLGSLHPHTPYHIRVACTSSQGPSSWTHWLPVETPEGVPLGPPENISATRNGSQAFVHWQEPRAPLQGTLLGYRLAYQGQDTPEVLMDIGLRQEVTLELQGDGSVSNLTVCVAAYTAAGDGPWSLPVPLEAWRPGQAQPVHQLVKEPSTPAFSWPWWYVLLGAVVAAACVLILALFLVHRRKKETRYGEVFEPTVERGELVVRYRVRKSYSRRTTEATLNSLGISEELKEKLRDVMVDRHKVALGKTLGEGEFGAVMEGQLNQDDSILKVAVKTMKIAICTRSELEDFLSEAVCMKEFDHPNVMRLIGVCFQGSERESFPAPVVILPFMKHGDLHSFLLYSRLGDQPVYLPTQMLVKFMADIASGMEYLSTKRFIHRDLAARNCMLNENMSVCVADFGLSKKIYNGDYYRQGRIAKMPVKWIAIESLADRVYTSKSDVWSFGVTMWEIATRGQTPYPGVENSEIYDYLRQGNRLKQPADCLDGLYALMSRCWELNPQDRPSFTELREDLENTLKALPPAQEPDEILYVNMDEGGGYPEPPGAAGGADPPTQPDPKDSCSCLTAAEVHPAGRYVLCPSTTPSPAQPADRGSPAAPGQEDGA

Histamine H1 receptor = Histamine H1 receptor (Homo sapiens, UniProt P35367); assay: Selectivity interaction (Panel of kinases, GPCRs, ion channels and transporters (enzymatic assay)) EUB0000223bCl HRH1
[5] = molecular target: T1, Myosin light chain kinase family member 4 (Homo sapiens) (UniProt Q86YV6); assay: Selectivity interaction (KinomeScan (DiscoverX)) EUB0000655a MYLK4; settings: at 10 µM
T1 sequence (whole entry): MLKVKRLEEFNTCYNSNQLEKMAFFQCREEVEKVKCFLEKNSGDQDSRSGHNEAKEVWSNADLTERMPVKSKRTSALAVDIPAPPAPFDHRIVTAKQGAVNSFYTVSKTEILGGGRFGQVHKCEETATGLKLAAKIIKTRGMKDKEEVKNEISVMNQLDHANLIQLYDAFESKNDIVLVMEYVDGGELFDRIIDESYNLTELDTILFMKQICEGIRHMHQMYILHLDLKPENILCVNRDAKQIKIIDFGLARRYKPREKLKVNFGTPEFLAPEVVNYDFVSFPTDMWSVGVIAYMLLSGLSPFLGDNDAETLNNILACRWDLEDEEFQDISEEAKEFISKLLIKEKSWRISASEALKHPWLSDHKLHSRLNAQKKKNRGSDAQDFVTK

[6] = molecular target: Cyclin-dependent kinase 4/cyclin D1 (Homo sapiens) (UniProt P11802+P24385); assay: Selectivity interaction (KinomeScan (DiscoverX)) EUB0000655a CDK4; type: protein-complex assay; settings: at 10 µM
[7] = molecular target: T2, Mitogen-activated protein kinase kinase kinase 19 (Homo sapiens) (UniProt Q56UN5); assay: Selectivity interaction (KinomeScan (DiscoverX)) EUB0000655a MAP3K19; settings: at 10 µM
T2 sequence (whole entry): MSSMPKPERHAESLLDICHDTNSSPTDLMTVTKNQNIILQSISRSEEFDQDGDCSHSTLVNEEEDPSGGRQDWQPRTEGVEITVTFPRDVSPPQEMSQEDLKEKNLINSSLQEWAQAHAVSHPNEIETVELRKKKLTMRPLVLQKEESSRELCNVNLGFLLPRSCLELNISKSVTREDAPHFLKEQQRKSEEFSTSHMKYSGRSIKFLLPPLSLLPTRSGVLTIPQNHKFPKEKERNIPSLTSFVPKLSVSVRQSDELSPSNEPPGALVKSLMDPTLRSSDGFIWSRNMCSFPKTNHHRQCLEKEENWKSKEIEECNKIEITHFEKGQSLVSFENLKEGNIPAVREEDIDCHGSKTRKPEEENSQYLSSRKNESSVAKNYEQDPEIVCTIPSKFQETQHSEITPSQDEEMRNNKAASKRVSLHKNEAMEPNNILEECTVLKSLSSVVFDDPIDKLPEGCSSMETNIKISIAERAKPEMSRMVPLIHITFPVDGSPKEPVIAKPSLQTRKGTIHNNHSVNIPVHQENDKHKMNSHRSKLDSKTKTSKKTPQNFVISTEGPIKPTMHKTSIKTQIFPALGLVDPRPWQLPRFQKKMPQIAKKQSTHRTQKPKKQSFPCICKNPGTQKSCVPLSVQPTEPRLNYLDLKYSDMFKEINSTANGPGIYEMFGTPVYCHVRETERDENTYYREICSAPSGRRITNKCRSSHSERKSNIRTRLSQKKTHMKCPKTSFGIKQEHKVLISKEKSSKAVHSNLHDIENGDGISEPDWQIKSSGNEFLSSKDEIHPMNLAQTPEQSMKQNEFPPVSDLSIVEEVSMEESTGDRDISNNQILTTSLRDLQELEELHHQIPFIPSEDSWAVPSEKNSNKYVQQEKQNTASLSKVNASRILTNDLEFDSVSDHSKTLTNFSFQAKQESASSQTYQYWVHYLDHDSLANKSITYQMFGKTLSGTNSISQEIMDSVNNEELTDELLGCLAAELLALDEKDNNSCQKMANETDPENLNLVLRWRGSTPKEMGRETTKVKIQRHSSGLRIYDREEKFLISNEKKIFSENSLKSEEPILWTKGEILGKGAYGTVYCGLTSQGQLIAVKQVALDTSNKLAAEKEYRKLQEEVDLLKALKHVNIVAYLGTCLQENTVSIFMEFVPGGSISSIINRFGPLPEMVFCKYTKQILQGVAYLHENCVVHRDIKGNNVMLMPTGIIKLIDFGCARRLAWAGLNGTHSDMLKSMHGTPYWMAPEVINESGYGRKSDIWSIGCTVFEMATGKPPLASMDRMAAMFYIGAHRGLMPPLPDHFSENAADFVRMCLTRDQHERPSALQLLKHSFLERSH

[8] = molecular target: Protein polybromo-1 (Homo sapiens) (UniProt Q86U86); assay: Selectivity interaction (Bromodomain panel (DSF asssay)) EUB0000270b PBRM1
Protein polybromo-1 (Homo sapiens), sequence (Q86U86 whole entry): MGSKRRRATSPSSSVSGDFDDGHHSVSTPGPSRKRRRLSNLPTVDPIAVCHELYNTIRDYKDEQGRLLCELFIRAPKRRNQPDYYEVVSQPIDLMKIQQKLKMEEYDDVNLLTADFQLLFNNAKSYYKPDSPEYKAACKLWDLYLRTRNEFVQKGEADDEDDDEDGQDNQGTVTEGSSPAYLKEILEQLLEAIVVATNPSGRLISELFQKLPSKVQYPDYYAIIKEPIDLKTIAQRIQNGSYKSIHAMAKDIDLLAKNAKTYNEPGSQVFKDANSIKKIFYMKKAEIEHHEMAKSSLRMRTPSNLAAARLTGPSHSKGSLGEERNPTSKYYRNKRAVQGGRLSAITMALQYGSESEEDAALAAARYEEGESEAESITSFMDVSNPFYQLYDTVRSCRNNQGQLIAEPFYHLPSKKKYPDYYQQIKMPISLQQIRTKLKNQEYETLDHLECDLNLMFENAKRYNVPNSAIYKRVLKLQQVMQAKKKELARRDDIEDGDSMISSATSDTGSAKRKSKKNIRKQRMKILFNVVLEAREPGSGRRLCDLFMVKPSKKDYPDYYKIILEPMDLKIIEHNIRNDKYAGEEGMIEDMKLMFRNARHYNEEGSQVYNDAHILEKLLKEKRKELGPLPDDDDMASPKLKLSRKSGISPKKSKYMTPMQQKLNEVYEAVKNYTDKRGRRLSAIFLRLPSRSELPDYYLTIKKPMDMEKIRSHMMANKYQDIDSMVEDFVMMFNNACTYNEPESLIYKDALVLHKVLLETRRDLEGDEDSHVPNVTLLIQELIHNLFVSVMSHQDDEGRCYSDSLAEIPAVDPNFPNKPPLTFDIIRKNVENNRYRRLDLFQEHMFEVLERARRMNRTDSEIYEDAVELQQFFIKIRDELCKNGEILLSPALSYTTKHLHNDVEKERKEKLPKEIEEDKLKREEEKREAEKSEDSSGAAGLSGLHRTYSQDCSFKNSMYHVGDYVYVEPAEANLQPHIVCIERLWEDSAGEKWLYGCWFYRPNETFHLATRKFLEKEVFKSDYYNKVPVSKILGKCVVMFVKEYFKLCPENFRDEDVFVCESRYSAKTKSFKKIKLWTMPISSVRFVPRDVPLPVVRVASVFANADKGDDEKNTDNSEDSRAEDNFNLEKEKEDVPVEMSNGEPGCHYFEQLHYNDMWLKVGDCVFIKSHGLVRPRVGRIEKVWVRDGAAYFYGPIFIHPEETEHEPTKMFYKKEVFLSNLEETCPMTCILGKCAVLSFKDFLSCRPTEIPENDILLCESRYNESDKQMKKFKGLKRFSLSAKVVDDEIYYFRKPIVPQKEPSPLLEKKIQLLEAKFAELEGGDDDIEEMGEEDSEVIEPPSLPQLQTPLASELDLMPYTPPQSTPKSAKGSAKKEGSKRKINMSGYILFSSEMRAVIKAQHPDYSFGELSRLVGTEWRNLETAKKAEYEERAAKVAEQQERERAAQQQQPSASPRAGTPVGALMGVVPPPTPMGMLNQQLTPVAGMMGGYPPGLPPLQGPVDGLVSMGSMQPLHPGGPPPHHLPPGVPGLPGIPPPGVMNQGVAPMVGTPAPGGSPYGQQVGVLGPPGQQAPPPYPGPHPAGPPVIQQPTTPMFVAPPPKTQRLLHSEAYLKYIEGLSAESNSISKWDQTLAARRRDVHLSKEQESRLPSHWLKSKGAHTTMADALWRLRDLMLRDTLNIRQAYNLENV

[9] = molecular target: Serine/threonine-protein kinase 32A (Homo sapiens) (UniProt Q8WU08); assay: Selectivity interaction (KinomeScan (DiscoverX)) EUB0000092b STK32A; settings: at 10 µM
[10] = molecular target: Citron Rho-interacting kinase (Homo sapiens) (UniProt O14578); assay: Selectivity interaction (KinomeScan (DiscoverX)) EUB0000618a CIT; settings: at 10 µM
[11] = molecular target: G protein-coupled receptor kinase 6 (Homo sapiens) (UniProt P43250); assay: Selectivity interaction (ActivX KiNativ screen (ex vivo kinase selectivity in human PBMCs)) EUB0001619a GRK6; type: cell-based; settings: PBMC, at 1 µM

Receptor tyrosine-protein kinase erbB-2, sequence (P04626 whole entry): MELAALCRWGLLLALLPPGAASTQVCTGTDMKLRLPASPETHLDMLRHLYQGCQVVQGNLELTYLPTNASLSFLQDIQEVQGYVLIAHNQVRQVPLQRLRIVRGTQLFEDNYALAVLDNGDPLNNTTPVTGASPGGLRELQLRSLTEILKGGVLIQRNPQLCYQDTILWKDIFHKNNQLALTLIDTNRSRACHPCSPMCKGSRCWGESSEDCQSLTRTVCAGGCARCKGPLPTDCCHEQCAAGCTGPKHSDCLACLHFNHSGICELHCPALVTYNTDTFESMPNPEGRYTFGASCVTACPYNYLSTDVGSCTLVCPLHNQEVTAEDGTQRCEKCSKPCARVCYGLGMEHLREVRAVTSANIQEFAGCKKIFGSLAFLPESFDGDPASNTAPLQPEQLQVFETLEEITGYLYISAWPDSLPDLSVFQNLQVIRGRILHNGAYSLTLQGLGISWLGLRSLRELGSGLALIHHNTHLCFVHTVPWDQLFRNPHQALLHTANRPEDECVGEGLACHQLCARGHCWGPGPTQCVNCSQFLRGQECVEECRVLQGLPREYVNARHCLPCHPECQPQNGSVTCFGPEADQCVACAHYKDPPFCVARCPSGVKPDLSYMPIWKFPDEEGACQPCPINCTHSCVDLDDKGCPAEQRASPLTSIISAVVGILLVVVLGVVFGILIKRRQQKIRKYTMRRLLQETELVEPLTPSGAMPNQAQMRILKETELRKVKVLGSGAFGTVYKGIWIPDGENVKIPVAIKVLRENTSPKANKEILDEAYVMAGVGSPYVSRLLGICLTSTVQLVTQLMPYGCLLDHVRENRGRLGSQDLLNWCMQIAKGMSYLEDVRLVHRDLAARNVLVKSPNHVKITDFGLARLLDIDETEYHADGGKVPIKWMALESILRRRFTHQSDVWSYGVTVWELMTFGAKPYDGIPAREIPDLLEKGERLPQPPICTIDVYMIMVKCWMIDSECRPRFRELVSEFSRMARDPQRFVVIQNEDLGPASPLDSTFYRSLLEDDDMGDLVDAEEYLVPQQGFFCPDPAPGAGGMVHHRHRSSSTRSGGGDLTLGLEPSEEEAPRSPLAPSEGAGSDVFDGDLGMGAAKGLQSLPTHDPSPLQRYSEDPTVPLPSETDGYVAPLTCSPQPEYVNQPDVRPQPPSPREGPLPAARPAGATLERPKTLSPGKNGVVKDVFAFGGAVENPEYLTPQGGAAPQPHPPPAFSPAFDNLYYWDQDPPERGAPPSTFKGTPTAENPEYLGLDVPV

SMILES: O=C(NOC[C@H](O)CO)c1ccc(F)c(F)c1Nc1ccc(I)cc1F
% of control [1]: 100%

% of control [2]: 24%
SMILES: CCN(CC)CCCCNc1ncc2cc(-c3cc(OC)cc(OC)c3)c(NC(=O)NC(C)(C)C)nc2n1

% of control ([3]; at 1 µM): 77% | % of control ([3]; at 5 µM): 43%
SMILES: C=CC(=O)Nc1cccc(C(=O)Nc2ccc(Nc3cc(-c4[nH]c(SC)nc4C)ccn3)cc2)c1

% of control [4]: 114%
SMILES: CC(=O)Nc1cccc(-n2c(=O)n(C3CC3)c(=O)c3c(Nc4ccc(I)cc4F)n(C)c(=O)c(C)c32)c1

SMILES: COc1cc(C(=O)N2CC[C@@H](O)[C@@H](N)C2)cc2nc(-c3cc4ccccc4n3CC3CC3)n(C)c12
pXC50 (Histamine H1 receptor): < 4.4 M

SMILES: CN(C)CCOc1ccc(-c2nc(-c3ccncc3)c(-c3ccc4c(c3)CC/C4=N\O)[nH]2)cc1
% of control [5]: 98% | % of control [6]: 58% | % of control [7]: 30%

dTM [8]: -1.91 K
SMILES: Cc1cc(CN)cc(C)c1-c1ncn(C)c1-c1cncn1C

SMILES: CCC(=O)N1CCN(c2ccc(-n3c(=O)ccc4cnc5ccc(-c6cnc7ccccc7c6)cc5c43)cc2C(F)(F)F)CC1
% of control [9]: 100%

SMILES: O[C@H]1CC[C@H](Nc2ncc3nc(Nc4c(F)cc(F)cc4F)n([C@H]4CCOC4)c3n2)CC1
% of control [10]: 96%

SMILES: N#Cc1cccc(-c2c[nH]c3ncnc(N4CCOCC4)c23)c1
% of inhibition [11]: 11%
